Data from patent US20260191853A1, “METHOD OF TREATING DRUG-INDUCED BRADYARRHYTHMIA” (OSAKA UNIVERSITY, priority 2022, published 2026).

Legend:
Hartley guinea pigs = test: Termination effect on fingolimod-induced bradyarrhythmia in isoflurane-anesthetized guinea pig model; type: in vivo
Source text: Hartley guinea pigs (7 to 10 weeks old, male, available from Japan SLC, Inc.) were subjected to anesthetic induction by inhalation of isoflurane (available from Pfizer Japan Inc.), and each animal was held on an operating table having a heater function. The trachea was incised, and a tracheal cannula (KN-375, available from Natsume Seisakusho Co., Ltd.) was inserted. The tracheal cannula was connected to a ventilator (SN-480-7, available from Shinano Seisakusho Co., Ltd.), and artificial respiration was controlled by supplying 100% oxygen at a volume of 10 mL and a ventilation rate of 60 times/minute. Isoflurane (available from Pfizer Japan Inc.) anesthesia (about 1 to 4%, carrier gas: 100% oxygen) was used for maintenance of anesthesia. A catheter (BD intramedic polyethylene tubing PE50, available from Becton, Dickinson and Company) charged with 50 units/mL heparin (available from AY PHARMACEUTICALS CO., LTD.) was inserted into each of the carotid artery and the jugular vein and placed in the blood vessel. Systemic blood pressure was measured with a high-sensitivity DC amplifier (AD-611J, available from NIHON KOHDEN CORPORATION) via the catheter placed in the carotid artery. Electrodes were attached to the body surface, and a body surface electrocardiogram was measured with a high-sensitivity amplifier (AB-611J, available from NIHON KOHDEN CORPORATION). Blood pressure and electrocardiogram data were acquired and analyzed with PowerLab/Labchart system (available from ADInstruments). After stabilization of each parameter, fingolimod hydrochloride (available from Nissan Chemical Corporation) was continuously administered intravenously at 0.1 mg/kg for 10 minutes via the catheter placed in the jugular vein, followed by observation of the presence or absence of atrioventricular block. After confirmation that atrioventricular block continued for 10 minutes from the onset thereof, a solvent or compound (I) dihydrochloride was continuously administered intravenously at 0.1 mg/kg for 30 minutes, and the effect of terminating atrioventricular block was observed during the intravenous administration. The solvent used was saline (available from Otsuka Pharmaceutical Factory, Inc.). Data were recorded and blood was collected 10, 20, and 30 minutes after initiation of administration of compound (I) dihydrochloride and at the time of termination of atrioventricular block. The observation was terminated 30 minutes after initiation of the administration, and the animal was euthanized by exsanguination or intravenous administration of a large amount of saturated potassium chloride solution under isoflurane anesthesia. Data were analyzed for the presence or absence of the termination, the time required for the termination, and the plasma concentration of compound (I) at the time of termination. The plasma was collected by centrifuging the blood and cryopreserved at about −20° C. After thawing of the plasma, plasma drug concentrations were measured using LC/MS/MS after deproteinization with acetonitrile.
In Table 1, the measurements are shown as mean±standard error.

Wistar rats = test: Therapeutic effect on propranolol-induced bradyarrhythmia in conscious rat (telemetry); type: in vivo; details: compound (I) dihydrochloride 1 mg/kg i.p. about 30 min after propranolol 1 mg/kg i.p.; awake rats; FIG. 8
Source text: Wistar rats (10 weeks old, male, available from Kiwa Laboratory Animals Co., Ltd.) were anesthetized by inhalation of Sevofrane (available from Maruishi Pharmaceutical Co., Ltd.) and held on an operating table. An implantable telemetry transmitter ETA-F10 (DSI) was placed subcutaneously in each rat, and one lead was fixed to each of the upper right chest and the left lower chest. After being fully awakened, the rat was placed in a cage on the receiving board, and a body surface electrocardiogram was measured with a high-sensitivity amplifier. Electrocardiogram data were acquired and analyzed with LabChart Pro & LabChart module (available from Bio Research Center Co., Ltd.). After stabilization of the heart rate, propranolol (Inderal Injection, available from AstraZeneca K.K.) was administered by intraperitoneal injection at a dose of 1 mg/kg. After the elapse of about 30 minutes, the stabilization of the heart rate was determined, and then saline or compound (I) dihydrochloride was administered by intraperitoneal injection at a dose of 1 mg/kg. Thirty minutes after the administration, the heart rate in a stable state was measured for evaluation. The solvent used was saline (available from Otsuka Pharmaceutical Factory, Inc.). […]

KACh channel = molecular target: T1, KACh channel (Homo sapiens, UniProt P48544+P48549); test: KACh channel inhibitory action
T1 sequence (P48549 1-501): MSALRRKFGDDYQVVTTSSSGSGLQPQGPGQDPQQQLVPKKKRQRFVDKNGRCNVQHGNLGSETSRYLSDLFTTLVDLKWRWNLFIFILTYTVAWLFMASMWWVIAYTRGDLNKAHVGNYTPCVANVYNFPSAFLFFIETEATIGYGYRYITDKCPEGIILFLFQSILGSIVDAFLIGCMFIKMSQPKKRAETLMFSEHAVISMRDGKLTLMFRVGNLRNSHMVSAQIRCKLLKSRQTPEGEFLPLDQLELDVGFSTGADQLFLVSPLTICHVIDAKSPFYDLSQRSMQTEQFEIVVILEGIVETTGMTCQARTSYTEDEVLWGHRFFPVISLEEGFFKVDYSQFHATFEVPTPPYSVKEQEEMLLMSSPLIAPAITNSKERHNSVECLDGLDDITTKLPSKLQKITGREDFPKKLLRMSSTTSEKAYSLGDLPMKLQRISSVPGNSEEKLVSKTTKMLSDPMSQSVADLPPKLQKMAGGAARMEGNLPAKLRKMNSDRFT
T1 sequence (P48544 1-419): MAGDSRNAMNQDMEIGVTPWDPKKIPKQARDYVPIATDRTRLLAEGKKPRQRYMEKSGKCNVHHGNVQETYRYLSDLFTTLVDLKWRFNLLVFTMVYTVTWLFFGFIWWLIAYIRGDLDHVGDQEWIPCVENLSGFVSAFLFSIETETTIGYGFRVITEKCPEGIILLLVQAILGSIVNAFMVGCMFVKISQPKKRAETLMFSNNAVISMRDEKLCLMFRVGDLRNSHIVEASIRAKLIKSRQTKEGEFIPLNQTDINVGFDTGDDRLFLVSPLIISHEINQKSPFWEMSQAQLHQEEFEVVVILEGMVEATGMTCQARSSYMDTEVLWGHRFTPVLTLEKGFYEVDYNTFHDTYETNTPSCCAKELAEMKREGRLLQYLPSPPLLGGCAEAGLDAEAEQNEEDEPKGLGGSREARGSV

## Cc1cc(CO)nc2cc3c(cc12)OC(C)(C)[C@H](O)[C@H]3NCCc1ccccc1 [Compound (I), (3R,4S)-7-Hydroxymethyl-2,2,9-trimethyl-4-(phenethylamino)-3,4-dihydro-2H-pyrano[2,3-g]quinoline-3-ol]
Hartley guinea pigs; compound (I) dihydrochloride 0.1 mg/kg continuous i.v.
  fingolimod-induced bradyarrhythmia (atrioventricular block: A-V block) termination: completely terminated
Hartley guinea pigs; fingolimod-induced block, compound (I) dihydrochloride 0.1 mg/kg continuous i.v. for 30 minutes
  Number of cases where atrioventricular block was terminated: 5/5
Hartley guinea pigs; fingolimod-induced block, compound (I) dihydrochloride 0.1 mg/kg continuous i.v. for 30 minutes, mean±standard error
  Time required for the termination of atrioventricular block: 750 ± 43 s
Hartley guinea pigs; plasma, fingolimod-induced block, 0.1 mg/kg continuous i.v. for 30 minutes, mean±standard error
  Compound (I) concentration at the time of termination: 30.9 ± 1.9 ng/mL
Wistar rats
  propranolol-induced bradycardia (heart rate): improved bradycardia
KACh channel
  KACh channel inhibitory action: has a KACh channel inhibitory action
